In the supplement of paper PMC10307832:

The cell lines below were run with O=C(/C=C/c1cccnc1)NCCCCC1CCN(C(=O)c2ccccc2)CC1 [Daporinad] + O=C(CCCCCCC(=O)Nc1ccccc1)NO [Vorinostat] (partner 1 µM) (assay: relative viability (nuclei count vs DMSO), 5 days (fraction); higher = more cells survive). Details: first compound 0.0005 µM.
Outline: (§1)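 Cells from lung cancer lines were seeded into 1536-well plates and, one day later, dosed by pin tool. Treatments were either a single drug or a fixed dose of an anchor drug with five library-drug doses (not always all listed) in √10 steps. After 5 days, nuclei were stained in a one-step fixation (final 0.05% Triton X-100, 1% formaldehyde, 1 ug/ml Hoechst) and counted on 4× images, and relative viability is the treated-to-vehicle nuclei ratio, as the median of duplicate plates.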
NCI-H1651 showed a relative viability of 0.613. For EPLC-272H, the relative viability was 0.408. Work on NCI-H2228 yielded a relative viability of 0.568. NCI-H1355 was tested, and the relative viability was 0.652. Work on NCI-H3122 yielded a relative viability of 0.938. NCI-H1437 was tested, and the relative viability was 0.759. NCI-H1755 showed a relative viability of 0.76. For NCI-H2023, the relative viability was 0.848. With HCC-15 the relative viability was 0.782. PC-3 [JPC-3] gave a relative viability of 0.604. With EKVX the relative viability was 0.621. LC-2-ad showed a relative viability of 0.677. In the case of NCI-H1975, the relative viability was 0.748. Cell Line SK-LU-1 has a relative viability of 0.851. NCI-H661 showed a relative viability of 0.766. In the case of RERF-LC-KJ, the relative viability was 0.659.

Same assay, conditions: first compound 0.001581 µM
Cell Line HCC-78 has a relative viability of 0.414. NCI-H322M was tested, and the relative viability was 0.877. Cell Line LCLC-97TM1 has a relative viability of 0.686. For NCI-H2009, the relative viability was 0.79. A-427 showed a relative viability of 0.886. NCI-H460 was tested, and the relative viability was 0.719. Work on NCI-H1734 yielded a relative viability of 0.897. In the case of NCI-H520, the relative viability was 0.284. NCI-H2347 gave a relative viability of 0.754. For SW 1573, the relative viability was 1.12. With 201T the relative viability was 1.08. NCI-H1915 was tested, and the relative viability was 0.605. Work on HCC-827 yielded a relative viability of 0.871. Cell Line LXF-289 has a relative viability of 0.937. In the case of NCI-H23, the relative viability was 0.251. NCI-H650 showed a relative viability of 0.488. CAL-12T showed a relative viability of 0.799. With NCI-H1651 the relative viability was 0.594. Cell Line EPLC-272H has a relative viability of 0.531. Cell Line NCI-H2228 has a relative viability of 0.606. NCI-H1355 gave a relative viability of 0.738. For NCI-H3122, the relative viability was 1.14. For NCI-H1437, the relative viability was 0.831. For NCI-H1755, the relative viability was 0.934. NCI-H2023 showed a relative viability of 0.667. HCC-15 gave a relative viability of 0.959. Work on PC-3 [JPC-3] yielded a relative viability of 0.818. With EKVX the relative viability was 0.825. LC-2-ad showed a relative viability of 0.769. NCI-H1975 was tested, and the relative viability was 0.728. SK-LU-1 showed a relative viability of 0.85. For NCI-H661, the relative viability was 0.709. RERF-LC-KJ showed a relative viability of 0.795.

Same assay, conditions: first compound 0.005 µM
HCC-78 gave a relative viability of 0.345. For NCI-H322M, the relative viability was 0.831. LCLC-97TM1 gave a relative viability of 0.867. For NCI-H2009, the relative viability was 0.708. A-427 gave a relative viability of 0.793. Work on NCI-H460 yielded a relative viability of 0.687. In the case of NCI-H1734, the relative viability was 0.729. NCI-H520 gave a relative viability of 0.228. In the case of NCI-H2347, the relative viability was 0.601. Cell Line SW 1573 has a relative viability of 0.535. Cell Line 201T has a relative viability of 1.05. With NCI-H1915 the relative viability was 0.634. With HCC-827 the relative viability was 0.913. LXF-289 was tested, and the relative viability was 0.794. NCI-H23 showed a relative viability of 0.586. NCI-H650 gave a relative viability of 0.511. CAL-12T showed a relative viability of 0.402. Cell Line NCI-H1651 has a relative viability of 0.695. For EPLC-272H, the relative viability was 0.401. For NCI-H2228, the relative viability was 0.692. In the case of NCI-H1355, the relative viability was 0.615. Work on NCI-H3122 yielded a relative viability of 1.03. NCI-H1437 was tested, and the relative viability was 0.893. With NCI-H1755 the relative viability was 0.807. Cell Line NCI-H2023 has a relative viability of 0.715. HCC-15 showed a relative viability of 0.889. PC-3 [JPC-3] was tested, and the relative viability was 1.06. In the case of EKVX, the relative viability was 0.841. LC-2-ad was tested, and the relative viability was 0.693. For NCI-H1975, the relative viability was 0.813. Work on SK-LU-1 yielded a relative viability of 0.919. Cell Line NCI-H661 has a relative viability of 0.461. Cell Line RERF-LC-KJ has a relative viability of 0.814.

Same assay, conditions: first compound 0.01581 µM
With HCC-78 the relative viability was 0.5. Cell Line NCI-H322M has a relative viability of 0.669. For LCLC-97TM1, the relative viability was 1.1. Work on NCI-H2009 yielded a relative viability of 0.347. A-427 showed a relative viability of 0.659. Work on NCI-H460 yielded a relative viability of 0.643. NCI-H1734 was tested, and the relative viability was 0.301. NCI-H520 was tested, and the relative viability was 0.165. NCI-H2347 showed a relative viability of 0.616. Work on SW 1573 yielded a relative viability of 0.305. With 201T the relative viability was 1.04. Cell Line NCI-H1915 has a relative viability of 0.462. Work on HCC-827 yielded a relative viability of 0.906. In the case of LXF-289, the relative viability was 0.96. With NCI-H23 the relative viability was 0.2. Cell Line NCI-H650 has a relative viability of 0.399. With CAL-12T the relative viability was 0.217. NCI-H1651 gave a relative viability of 0.529. In the case of EPLC-272H, the relative viability was 0.294. NCI-H2228 showed a relative viability of 0.544. For NCI-H1355, the relative viability was 0.532. Work on NCI-H3122 yielded a relative viability of 0.898. For NCI-H1437, the relative viability was 0.718. Cell Line NCI-H1755 has a relative viability of 0.751. Cell Line NCI-H2023 has a relative viability of 0.631. HCC-15 gave a relative viability of 0.911. In the case of PC-3 [JPC-3], the relative viability was 0.921. For EKVX, the relative viability was 0.851. LC-2-ad showed a relative viability of 0.63. Work on NCI-H1975 yielded a relative viability of 0.689. SK-LU-1 showed a relative viability of 0.788. NCI-H661 gave a relative viability of 0.568. For RERF-LC-KJ, the relative viability was 0.701.

These cell lines were tested with COc1cc(Nc2ncc(F)c(Nc3ccc4c(n3)NC(=O)C(C)(C)O4)n2)cc(OC)c1OC [R406] + Nc1nc2[nH]cc(CCc3ccc(C(=O)N[C@@H](CCC(=O)O)C(=O)O)cc3)c2c(=O)[nH]1 [Pemetrexed] (partner 0.2 µM) in the same assay as above. Details: first compound 0.08 µM.
Outline: as §1
Work on HCC-78 yielded a relative viability of 0.807. For NCI-H322M, the relative viability was 0.532. Cell Line LCLC-97TM1 has a relative viability of 0.182. With NCI-H2009 the relative viability was 0.969. Cell Line A-427 has a relative viability of 0.947. In the case of NCI-H460, the relative viability was 0.064. NCI-H1734 was tested, and the relative viability was 0.394. Work on NCI-H520 yielded a relative viability of 0.698. With NCI-H2347 the relative viability was 0.402. In the case of SW 1573, the relative viability was 0.815. 201T showed a relative viability of 0.322. For NCI-H1915, the relative viability was 0.498. HCC-827 gave a relative viability of 0.259. In the case of LXF-289, the relative viability was 0.874. NCI-H23 gave a relative viability of 0.565. Work on NCI-H650 yielded a relative viability of 0.912. CAL-12T gave a relative viability of 1.22. NCI-H1651 was tested, and the relative viability was 0.475. EPLC-272H showed a relative viability of 0.359. In the case of NCI-H2228, the relative viability was 0.316. NCI-H1355 was tested, and the relative viability was 1.09. With NCI-H3122 the relative viability was 0.198. In the case of NCI-H1437, the relative viability was 0.297. With NCI-H1755 the relative viability was 0.474. NCI-H2023 gave a relative viability of 0.216.
